Molecules are shown by their SMILES. A value given as a limit tells only on which side of the number the result lay.

In one assay the test system is PDE4. Nature of the assay: Evaluation of PDE4 inhibitory activity, scintillation proximity assay. Particulars: scintillation proximity assay; class symbols of Evaluation 1; read-out: PDE4 Inhibitory Activity (concentration for the inhibition rate of 50%, IC50), Evaluation 1. The format is biochemical. As to the method: The BDE4 inhibitory activity was measured using scintillation proximity assay (SPA) as follows. First, a test compound dissolved in dimethyl sulfoxide was diluted 1:10 in reaction buffer solution which contained 50 mM of Tris-HCl with pH 7.4, 8.3 mM of MgCl2, 1.7 mM of EGTA, and 3 mg/mL of bovine serum albumin (BSA). Then, 10 μL of the diluted solution was added in a 96-well assay plate. Moreover, 50 μL of PDE4 (enzyme preparation) diluted 1:375 in the reaction buffer solution was added, and then 40 μL of [2,8-^3H]-adenosine-3′,5′-cyclic phosphate triethylammonium salt diluted 1:1000 in the reaction buffer solution was added. The mixture was allowed to stand at room temperature for 120 minutes. Thereafter, […] of RNA binding YSi-SPA beads suspension containing ZnSO4 was added and the mixture was allowed to stand at room temperature for 15 minutes, followed by adsorption of the enzyme reaction product to the beads. After that, the radioactivity was measured using a liquid scintillation counter for a 96-well plate. The mixture without the enzyme preparation added but only the reaction buffer solution added is a blank, and the mixture with the enzyme preparation added and only dimethyl sulfoxide added instead of the test compound is a control.
In addition, the PDE4 inhibitory activity (concentration that inhibits PDE4 activity by 50%=concentration for the inhibition rate of 50% (IC50)) of the test compound was calculated from the inhibition curves based on the inhibition rates for various concentrations of the test compound.
As to `C=CCOc1cc(-c2nccs2)c2oc(N3CC4CCC(C3)N4)nc2c1` [Example 72, 5-(Allyloxy)-2-(3,8-diazabicyclo[3.2.1]octan-3-yl)-7-(thiazol-2-yl)benzo[d]oxazole], the IC50 is < 0.1 µM. Still for that read-out and setting: as for `CC(=O)Nc1cc(-c2nccs2)c2oc(N3CC4CCCC(C3)N4)nc2c1` [Example 48, N-(2-(3,9-diazabicyclo[3.3.1]nonan-3-yl)-7-(thiazol-2-yl)benzo[d]oxazol-5-yl)acetamide], the figure is < 0.1 µM; as for `c1csc(-c2ccc(OC3CCC3)c3nc(N4CC5CCC(C4)N5)oc23)n1` [Example 81, 2-(3,8-Diazabicyclo[3.2.1]octan-3-yl)-4-cyclobutoxy-7-(thiazol-2-yl)benzo[d]oxazole], < 0.1 µM. Consider `CCOC(=O)c1cc(-n2cccn2)c2oc(N3CC4CCCC(C3)N4)nc2c1` [Example 93, Ethyl 2-(3,9-diazabicyclo[3.3.1]nonan-3-yl)-7-(1H-pyrazol-1-yl)benzo[d]oxazole-5-carboxylate], for which the IC50 is 0.1 to 1 µM. On the same count and under the same terms, as for `CC(O)c1cc(-c2nccs2)c2oc(N3CC4CCC(C3)N4)nc2c1` (stereo not shown) [Example 106, 1-(2-(3,8-Diazabicyclo[3.2.1]octan-3-yl)-7-(thiazol-2-yl)benzo[d]oxazol-5-yl)ethan-1-ol], the figure is < 0.1 µM; as for `C[S+]([O-])c1cc(-c2nccs2)c2oc(N3CC4CCC(C3)N4)nc2c1` (stereo not shown) [Example 42, 2-(3,8-Diazabicyclo[3.2.1]octan-3-yl)-5-(methylsulfinyl)-7-(thiazol-2-yl)benzo[d]oxazole], < 0.1 µM. On to `FC(F)(F)Oc1cc(-c2nccs2)c2oc(N3CC4CC(C3)N4)nc2c1` [Example 56, 2-(3,6-Diazabicyclo[3.1.1]heptan-3-yl)-7-(thiazol-2-yl)-5-(trifluoromethoxy)benzo[d]oxazole], for which the IC50 is < 0.1 µM.

`CC(O)(c1cc(-c2nccs2)c2oc(N3CC4CCC(C3)N4)nc2c1)C(F)(F)F` (stereo not shown) [Example 159, 2-(2-(3,8-Diazabicyclo[3.2.1]octan-3-yl)-7-(thiazol-2-yl)benzo[d]oxazol-5-yl)-1,1,1-trifluoropropan-2-ol]: the IC50 was < 0.1 µM. As for `OC(O)(c1cc(-c2nccs2)c2oc(N3CC4CC(C3)N4)nc2c1)C(F)(F)F` [Example 158, 1-(2-(3,6-Diazabicyclo[3.1.1]heptan-3-yl)-7-(thiazol-2-yl)benzo[d]oxazol-5-yl)-2,2,2-trifluoroethane-1,1-diol], the IC50 was in the range of 0.1 to 1 µM.

With `c1csc(-c2ccc(-c3nccs3)c3oc(N4CC5CCC(C4)N5)nc23)n1` [Example 85, 2-(3,8-Diazabicyclo[3.2.1]octan-3-yl)-4,7-di(thiazol-2-yl)benzo[d]oxazole], the IC50 is < 0.1 µM. The same measure, in the same setting: as for `CN(C)Cc1cc(-c2nccs2)c2oc(N3CC4CCC(C3)N4)nc2c1` [Example 169, 1-(2-(3,8-Diazabicyclo[3.2.1]octan-3-yl)-7-(thiazol-2-yl)benzo[d]oxazol-5-yl)-N,N-dimethylmethanamine], the figure is < 0.1 µM. On the same count and under the same terms, next, `COC(c1ccc(-c2nccs2)c2oc(N3CC4CC(C3)N4)nc12)C(F)(F)F` (stereo not shown) [Example 123, 2-(3,6-Diazabicyclo[3.1.1]heptan-3-yl)-7-(thiazol-2-yl)-4-(2,2,2-trifluoro-1-methoxyethyl)benzo[d]oxazole]: < 0.1 µM. The same measure, in the same setting: as for `COC(C)c1cc(-c2nccs2)c2oc(N3CC4CCC(C3)N4)nc2c1` (stereo not shown) [Example 110, 2-(3,8-Diazabicyclo[3.2.1]octan-3-yl)-5-(1-methoxyethyl)-7-(thiazol-2-yl)benzo[d]oxazole], the figure is < 0.1 µM. With `FC(F)(F)c1cc(-c2nccs2)c2oc(N3CC4CCCC(C3)N4)nc2c1` [Example 53, 2-(3,9-Diazabicyclo[3.3.1]nonan-3-yl)-7-(thiazol-2-yl)-5-(trifluoromethyl)benzo[d]oxazole], the IC50 is < 0.1 µM.

The assay is the same for the next values; noted with them: scintillation proximity assay; read-out: PDE4 Inhibitory Activity (Evaluation 1; concentration for the inhibition rate of 50%).
In the case of `O=C(NO)c1ccc(-c2nccs2)c2oc(N3CC4CC(C3)N4)nc12` [Example 367, 2-(3,6-Diazabicyclo[3.1.1]heptan-3-yl)-N-hydroxy-7-(thiazol-2-yl)benzo[d]oxazole-4-carboxamide], the IC50 was < 0.1 µM.

In the case of `OC(c1cc(-c2nccs2)c2oc(N3CC4CCC(C3)N4)nc2c1C(F)(F)F)C(F)F` (stereo not shown) [Example 183, 1-(2-(3,8-Diazabicyclo[3.2.1]octan-3-yl)-7-(thiazol-2-yl)-4-(trifluoromethyl)benzo[d]oxazol-5-yl)-2,2-difluoroethan-1-ol], the IC50 is < 0.1 µM. With `COC(C)c1ccc(-c2nccs2)c2oc(N3CC4CC(C3)N4)nc12` (stereo not shown) [Example 241, 2-(3,6-Diazabicyclo[3.1.1]heptan-3-yl)-4-(1-methoxyethyl)-7-(thiazol-2-yl)benzo[d]oxazole], the IC50 was < 0.1 µM. Regarding `OC(c1cc(-c2nccs2)c2oc(N3CC4CC(C3)N4)nc2c1OC(F)(F)F)C(F)F` (stereo not shown) [Example 207, 1-(2-(3,6-Diazabicyclo[3.1.1]heptan-3-yl)-7-(thiazol-2-yl)-4-(trifluoromethoxy)benzo[d]oxazol-5-yl)-2,2-difluoroethan-1-ol], the IC50 was < 0.1 µM. On the same count and under the same terms, as for `CC(O)(c1ccc(-c2nccs2)c2oc(N3CC4CCC(C3)N4)nc12)C(F)(F)F` (stereo not shown) [Example 236, 2-(2-(3,8-Diazabicyclo[3.2.1]octan-3-yl)-7-(thiazol-2-yl)benzo[d]oxazol-4-yl)-1,1,1-trifluoropropan-2-ol], the figure is < 0.1 µM; as for `CC(C)(O)c1cc(-c2nccs2)c2oc(N3CC4CCCC(C3)N4)nc2c1OC(F)(F)F` [Example 197, 2-(2-(3,9-Diazabicyclo[3.3.1]nonan-3-yl)-7-(thiazol-2-yl)-4-(trifluoromethoxy)benzo[d]oxazol-5-yl)propan-2-ol], < 0.1 µM.

`CC(C)(O)C(F)(F)Oc1ccc(-c2ncco2)c2oc(N3CC4CC(C3)N4)nc12` [Example 290, 1-((2-(3,6-Diazabicyclo[3.1.1]heptan-3-yl)-7-(oxazol-2-yl)benzo[d]oxazol-4-yl)oxy)-1,1-difluoro-2-methylpropan-2-ol]: the IC50 is < 0.1 µM.

Take `O=S1(=O)CCC(Oc2ccc(-c3nccs3)c3oc(N4CC5CC(C4)N5)nc23)CC1` [Example 314, 4-((2-(3,6-Diazabicyclo[3.1.1]heptan-3-yl)-7-(thiazol-2-yl)benzo[d]oxazol-4-yl)oxy)tetrahydro-2H-thiopyran 1,1-dioxide]: the IC50 was < 0.1 µM. The same measure, in the same setting: next, `O=C(O)c1cc(-c2nccs2)c2oc(N3CC4CCCC(C3)N4)nc2c1OC(F)(F)F` [Example 191, 2-(3,9-Diazabicyclo[3.3.1]nonan-3-yl)-7-(thiazol-2-yl)-4-(trifluoromethoxy)benzo[d]oxazole-5-carboxylic acid]: 0.1 to 1 µM; `CN(C)C(=O)C(F)(F)Oc1ccc(-c2nccs2)c2oc(N3CC4CC(C3)N4)nc12` [Example 408, 2-((2-(3,6-Diazabicyclo[3.1.1]heptan-3-yl)-7-(thiazol-2-yl)benzo[d]oxazol-4-yl)oxy)-2,2-difluoro-N,N-dimethylacetamide]: < 0.1 µM.

For `OCC(F)(F)Oc1ccc(-c2cscn2)c2oc(N3CC4CCC(C3)N4)nc12` [Example 312, 2-((2-(3,8-Diazabicyclo[3.2.1]octan-3-yl)-7-(thiazol-4-yl)benzo[d]oxazol-4-yl)oxy)-2,2-difluoroethan-1-ol], the IC50 is < 0.1 µM.

Values taken from patent US12239643B2, “Therapeutic agent for inflammatory diseases, autoimmune diseases, fibrotic diseases, and cancer diseases” (MEIJI SEIKA PHARMA CO., LTD., priority 2018, dated 2025).
